SMILES strings stand for the structures.

Our source for the IC50 values is US11225481B2 (Centre national de la recherche scientifique, priority 2015, dated 2022).

The target of one test is T1, BRD4(BD1) (Homo sapiens, UniProt O60885).
T1 construct: a BRD4(BD1) synthetic gene that includes a TEV cleavage site was purchased from LifeTechnology; made in house
Description: HTRF assay, disruption of bromodomain/histone peptide interaction. In kind it is binding. The note with it: HTRF; mean ± SD of three experiments; Table 2; read-out: IC50 μM, effect on BRD4(BD1) activity. As to the method: HTRF assays were performed in white 384 Well Small Volume™ HiBase Polystyrene Microplates (Greiner) with a total working volume of 20 μL. Compounds were dispensed, with 200 nL per well (1% final DMSO), from a concentration stock of 1 mM in 100% DMSO and with serial DMSO dilutions, using a Mosquito Crystal pipetting robot platform (TTP labtech). The IC50 measurements were performed in triplicates (Table 2 and 3). All HTRF reagents were purchased from CisBio Bioassays and reconstituted according to the supplier protocols. For each assay 14.7 μL of mix 1 (protein+peptide) is added in the assay wells, containing previously dispensed inhibitors, according to the final concentration and buffer described in Table 4, using a Biomek NX MC pipetting robot (Beckman). Then, 5.1 μL of mix 2 (donnor+acceptor) is added. HTRF signals were measured, after a final incubation (overnight at room temperature), using a PHERAstar FS (BMG Labtech) with an excitation filter at 337 nm and fluorescence wavelength measurement at 620 and 665 nm, an integration delay of 60 μs and an integration time of 500 μs. Results were analyzed with a two-wavelengths signal ratio: [intensity (665 nm)/intensity (620 nm)]*10^4. Percentage of inhibition was calculated using the following equation: % inhibition=[(compound signal)−(min signal)]/[(max signal)−(min signal)]*100, where ‘max signal’ is the signal ratio with the compound vehicle alone (DMSO) and ‘min signal’ the signal ratio without peptide.
For Isothermal Titration Calorimetry (ITC) and crystallogenesis, BRD4(BD1) was produced and purified using a histidine tag affinity chromatography as described by Filipakopoulos et al.9 For these experiments, a pNIC28-BSA4 expression vector containing BRD4(BD1) and a Tobacco Etch Virus (TEV) protease cleavage site have kindly been provided by Stefan Knapp laboratory from the SGC at the University of Oxford. After size exclusion chromatography, the fractions presenting pure BRD4(BD1) after TEV cleavage of the histidine tag were pooled and concentrated to 25 mg/mL for crystallogenesis. For ITC assays, the protein was concentrated up to at 6 mg/mL and the DTT was removed using a buffer exchange column (PD10 from GE healthcare) equilibrated with 10 mM HEPES pH=7.5, 150 mM NaCl. For Homogeneous Time Resolved Fluorimetry (HTRF) experiments, a BRD4(BD1) synthetic gene that includes a TEV cleavage site was purchased from LifeTechnology in a pDONR transport vector before cloning into a pDESTTM15 expression vector for GST affinity purification. Protein production and purification was carried out using similar protocols and buffers as used for the His-BRD4(BD1) system. Purification was carried on GST affinity resin (Thermo Scientific) and reduced glutathione was used for protein release. GST-BRD4(BD1) was further purified by size exclusion chromatography on a Superdex 16/60 Hiload column (GE Healthcare) using 20 mM TRIS pH=8.0, 150 mM NaCl Buffer.
Usually IC50 stands for the midpoint of a concentration-inhibition curve. `CCn1c(CO)nc2c1c(=O)[nH]c(=O)n2Cc1ccccc1` [Compound 18c]: the IC50 was > 100 µM.

In the case of `Cn1cnc2nc(N)[nH]c(=O)c21` [Compound 1b], the IC50 is > 100 µM.

The target of a further test is T1, BRD4(BD1). Description: HTRF assay on robot-synthesised focused library (Example 4 bis). The note with it: Table 2 bis; focused library without intermediary purification; read-out: HTRF (IC50, μM), effect on BRD4(BD1) activity. It is filed as binding. As to the method: The Accelerator Synthetizer SLT100 allows the efficient synthesis of the focused library in 96 well plates that can be directly transferred to a Labcyte Access/Echo® Laboratory Workstation to assess the compounds for their ability to disrupt bromodmain/histone complexes using the homogeneous time-resolved fluorescence (HTRF®) technology (IC50 μM).
After the efficient synthesis of the focused library in 96 well plates with the Accelerator Synthetizer SLT100, the focused library has been directly transferred to a Labcyte Access/Echo® Laboratory Workstation to assess the compounds for their ability to disrupt bromodmain/histone complexes using the homogeneous time-resolved fluorescence (HTRF®) technology (IC50 μM, table 2bis).
On the technique in general: Time-resolved FRET reads energy transfer from a long-lived donor to a nearby acceptor.
As for `CCn1c(COc2ncc(-c3ccc(C(=O)O)s3)cc2C)nc2c1c(=O)[nH]c(=O)n2Cc1ccc(Cl)cc1` [Compound 72], the IC50 is 4.4 µM.

Regarding `CCn1c(CSc2nc3cc(C(=O)OC)ccc3o2)nc2c1c(=O)[nH]c(=O)n2Cc1ccc(Cl)cc1` [Compound 63], the IC50 was found to be 8.9 µM.

Regarding `CCn1c(CSc2nnc(Cc3cc(C)nn3C)n2CC2CCCO2)nc2c1c(=O)[nH]c(=O)n2Cc1ccc(Cl)cc1` (centres unmarked) [Compound 74], the IC50 was found to be 5.5 µM.

With `CCn1c(CSc2nc3ccc(C(=O)O)cc3o2)nc2c1c(=O)[nH]c(=O)n2Cc1ccc(Cl)cc1` [Compound 56], the IC50 was found to be 13.2 µM.

`CCn1c(CSc2nc3cc(C(=O)O)ccc3o2)nc2c1c(=O)[nH]c(=O)n2Cc1ccc(Cl)cc1` [Compound 57]: the IC50 was 7.5 µM.

With `CCCCn1c(=O)[nH]c(=O)c2c1nc(COc1ccc3c(=O)c(Oc4ccccc4)coc3c1)n2CC` [Compound 47], the IC50 is 30.1 µM.

For `CCCCn1c(=O)[nH]c(=O)c2c1nc(COc1ccc(C3CNCC3C(=O)O)cc1)n2CC` (centres unmarked) [Compound 45], the IC50 was found to be 11.6 µM.

On to `CCCCn1c(=O)[nH]c(=O)c2c1nc(CSc1nc3cc(C(=O)OCC)ccc3n1CC)n2CC` [Compound 41], for which the IC50 amounted to 6.4 µM.

On to `CCn1c(COc2nnc(-c3ccccc3)c(-c3ccccc3)n2)nc2c1c(=O)[nH]c(=O)n2Cc1ccc(Cl)cc1` [Compound 71], for which the IC50 was determined as 17.8 µM.

On to `CCn1c(CSc2nc3cc(S(=O)(=O)CC)ccc3o2)nc2c1c(=O)[nH]c(=O)n2Cc1ccc(Cl)cc1` [Compound 59], for which the IC50 was determined as 6.9 µM.

Turning to `CCCCn1c(=O)[nH]c(=O)c2c1nc(CSc1nc3cc(S(=O)(=O)N4CCOCC4)ccc3[nH]1)n2CC` [Compound 39], the half-inhibitory concentration (IC50) amounted to 38.2 µM.

As for `CCn1c(COc2ccc(-n3[nH]c(C(=O)O)cc3=O)nn2)nc2c1c(=O)[nH]c(=O)n2Cc1ccc(Cl)cc1` [Compound 69], the IC50 came to 8.4 µM.

As to `CCn1c(CSc2nc3nc(C)c(Br)cc3[nH]2)nc2c1c(=O)[nH]c(=O)n2Cc1ccc(Cl)cc1` [Compound 79], the IC50 was 4.2 µM.

As for `CCCCn1c(=O)[nH]c(=O)c2c1nc(COc1ccc3c(=O)c(-c4ccccc4)coc3c1)n2CC` [Compound 48], the IC50 was 35.2 µM.

Regarding `CCCCn1c(=O)[nH]c(=O)c2c1nc(COc1cn3cc(C(=O)O)ccc3n1)n2CC` [Compound 49], the IC50 was found to be 35.1 µM.

In the case of `CCCCn1c(=O)[nH]c(=O)c2c1nc(CSc1nc3nc(C)ccc3o1)n2CC` [Compound 54], the IC50 was 7.1 µM.

Turning to `CCn1c(CSc2nc3cc(S(=O)(=O)N4CCOCC4)ccc3[nH]2)nc2c1c(=O)[nH]c(=O)n2Cc1ccc(Cl)cc1` [Compound 65], the half-inhibitory concentration (IC50) amounted to 32.7 µM.

As for `CCCCn1c(=O)[nH]c(=O)c2c1nc(COc1ccc(-n3[nH]c(C(=O)O)cc3=O)nn1)n2CC` [Compound 43], the IC50 came to 33.4 µM.

In the case of `CCn1c(CSc2nc3ccc(C(=O)O)cc3[nH]2)nc2c1c(=O)[nH]c(=O)n2Cc1ccc(Cl)cc1` [Compound 64], the IC50 is 5.1 µM.

For the molecule `CCn1c(CSc2nc3cc(S(=O)(=O)N(C)C)ccc3o2)nc2c1c(=O)[nH]c(=O)n2Cc1ccc(Cl)cc1` [Compound 61], the IC50 worked out at 4.7 µM.

Regarding `CCCCn1c(=O)[nH]c(=O)c2c1nc(CSc1nc3cc(C(=O)O)ccc3o1)n2CC` [Compound 36], the IC50 was 3 µM.

For `CCCCn1c(=O)[nH]c(=O)c2c1nc(CSc1nc3ccc([NH2+][O-])cc3[nH]1)n2CC` [Compound 40], the IC50 was found to be 33 µM.

On to `CCCCn1c(=O)[nH]c(=O)c2c1nc(CSc1nc3nc(C)c(CC(=O)O)c(C)n3n1)n2CC` [Compound 34], for which the half-inhibitory concentration (IC50) was determined as 44.5 µM.

For the molecule `CCn1c(COc2cccc(C(=O)NCc3ccccc3)c2)nc2c1c(=O)[nH]c(=O)n2Cc1ccc(Cl)cc1` [Compound 75], the IC50 was found to be 3.9 µM.

In the case of `CCCCn1c(=O)[nH]c(=O)c2c1nc(CSc1nc3cc(C(=O)OC)ccc3o1)n2CC` [Compound 38], the IC50 stood at 48.2 µM.

In the case of `CCCCn1c(=O)[nH]c(=O)c2c1nc(COc1ccc(Nc3nc4ccccc4c(=O)[nH]3)cc1)n2CC` [Compound 52], the IC50 came to 33 µM.

With `CCn1c(COc2ccc(C3NC(C(=O)O)CS3)cc2)nc2c1c(=O)[nH]c(=O)n2Cc1ccc(Cl)cc1` (centres unmarked) [Compound 73], the IC50 amounted to 7.5 µM.

Regarding `CCn1c(COc2nc3cc(C(=O)O)ccc3[nH]2)nc2c1c(=O)[nH]c(=O)n2Cc1ccc(Cl)cc1` [Compound 68], the concentration for half-maximal inhibition (IC50) came to 35.5 µM.

As for `CCOC(=O)c1ccc2c(c1)nc(SCc1nc3c(c(=O)[nH]c(=O)n3Cc3ccc(Cl)cc3)n1CC)n2CC` [Compound 66], the IC50 came out at 16.8 µM.

For the molecule `CCn1c(CSc2nc3cc(S(=O)(=O)N4CCOCC4)ccc3o2)nc2c1c(=O)[nH]c(=O)n2Cc1ccc(Cl)cc1` [Compound 62], the IC50 was determined as 8.9 µM.

Consider `CCn1c(CSc2nc3ncccn3n2)nc2c1c(=O)[nH]c(=O)n2Cc1ccc(Cl)cc1` [Compound 80], for which the IC50 came out at 10.6 µM.

Turning to `CCn1c(COc2ccc(Nc3nc4ccccc4c(=O)[nH]3)cc2)nc2c1c(=O)[nH]c(=O)n2Cc1ccc(Cl)cc1` [Compound 76], the IC50 was 12.7 µM.

On to `CCCCNS(=O)(=O)c1ccc2nc(SCc3nc4c(c(=O)[nH]c(=O)n4Cc4ccc(Cl)cc4)n3CC)[nH]c2c1` [Compound 67], for which the IC50 came out at 8.9 µM.

In the case of `CCn1c(CSc2nc3cc([N+](=O)[O-])ccc3o2)nc2c1c(=O)[nH]c(=O)n2Cc1ccc(Cl)cc1` [Compound 60], the IC50 is 8.4 µM.

In the case of `CCn1c(CSc2nc3cc(S(=O)(=O)N4CCCCC4)ccc3o2)nc2c1c(=O)[nH]c(=O)n2Cc1ccc(Cl)cc1` [Compound 58], the IC50 stood at 2.7 µM.

`CCCCn1c(=O)[nH]c(=O)c2c1nc(CSc1nnc(-c3ccccc3)c(-c3ccccc3)n1)n2CC` [Compound 46]: the IC50 was determined as 20.1 µM.

For the molecule `CCc1c(C(=O)O)cnn1-c1ccc(OCc2nc3c(c(=O)[nH]c(=O)n3Cc3ccc(Cl)cc3)n2CC)nn1` [Compound 70], the IC50 is 6.5 µM.

As to `CCCCn1c(=O)[nH]c(=O)c2c1nc(COc1cccc(C(=O)NCc3ccccc3)c1)n2CC` [Compound 51], the IC50 is 30.2 µM.

Regarding `CCCCn1c(=O)[nH]c(=O)c2c1nc(CSc1nc(O)c3c(C)cc(C)nc3n1)n2CC` [Compound 53], the IC50 was 4.4 µM.

As for `CCCCn1c(=O)[nH]c(=O)c2c1nc(CSc1nc3cc(S(=O)(=O)CC)ccc3o1)n2CC` [Compound 37], the IC50 amounted to 16.6 µM.

For the molecule `CCCCn1c(=O)[nH]c(=O)c2c1nc(CSc1nc3ccc(C(=O)O)cc3o1)n2CC` [Compound 35], the half-inhibitory concentration (IC50) came out at 19.2 µM.

With `CCn1c(CSc2nc3nc(C)c(CCC(=O)O)c(C)n3n2)nc2c1c(=O)[nH]c(=O)n2Cc1ccc(Cl)cc1` [Compound 55], the IC50 stood at 14.2 µM.

`CCCCn1c(=O)[nH]c(=O)c2c1nc(CSc1nc3nc(C)c(CCC(=O)O)c(C)n3n1)n2CC` [Compound 33]: the IC50 came to 8.5 µM.

With `CCCCn1c(=O)[nH]c(=O)c2c1nc(COc1ccc(-n3ncc(C(=O)O)c3CC)nn1)n2CC` [Compound 44], the 50% inhibitory concentration (IC50) stood at 21.9 µM.

As for `CCCCn1c(=O)[nH]c(=O)c2c1nc(COc1nc3cc(C(=O)O)ccc3[nH]1)n2CC` [Compound 42], the IC50 amounted to 45.3 µM.
